# Measurements taken from patent publication US20260159500A1, “KINESIN KIF18A INHIBITOR AND USE THEREOF” (SHANGHAI APEIRON THERAPEUTICS COMPANY LIMITED, priority 2022, published 2026).
# Where two headings read alike, the source gives them in different places.
# Key:
# HT29 cells = experiment: CyQuant cell proliferation activity test in HT29 cells; assay type: cell-based; conditions: 2000 cells per well, 3 days incubation, IC50 by XLFIT, read-out: HT29_IC50_nM
# In short: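 Cells seeded at 2000/well in RPMI-1640 with 10% FBS, overnight, then exposed 3 days at 37 °C to compound from 3000 nM top, 3-fold, 9 points, 0.2% DMSO. CyQuant read after 1 h; IC50 from curve fit.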
# OVCAR3 cells = experiment: Cell proliferation activity test in OVCAR3 cells (CyQUANT Direct); assay type: cell-based; conditions: 3 days incubation, CyQUANT fluorescence detection, read-out: OVCAR-3_IC50_nM
# In short: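 Log-phase cells in RPMI-1640 with 10% FBS were seeded overnight, then exposed to compound at final 0–10 μM (0.2% DMSO) for 3 days at 37 °C, 5% CO2. Proliferation was read by CyQUANT Direct fluorescence after 60 min at 37 °C.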
# [1] = biological target: T1, Human KIF18A (amino acid sequence 1-417) (Homo sapiens, UniProt Q8NI77); experiment: Enzymatic activity test (ADP-Glo, microtubule-stimulated KIF18A ATPase); assay type: biochemical; conditions: 60 μg/mL microtubules, 25 μM ATP, 2.5 nM KIF18A protein, 120 min at ambient temperature, read-out: KIF18A_nM
# T1 construct: purchased Viva Biotech (Shanghai) Ltd
# T1 sequence (Q8NI77 1-417): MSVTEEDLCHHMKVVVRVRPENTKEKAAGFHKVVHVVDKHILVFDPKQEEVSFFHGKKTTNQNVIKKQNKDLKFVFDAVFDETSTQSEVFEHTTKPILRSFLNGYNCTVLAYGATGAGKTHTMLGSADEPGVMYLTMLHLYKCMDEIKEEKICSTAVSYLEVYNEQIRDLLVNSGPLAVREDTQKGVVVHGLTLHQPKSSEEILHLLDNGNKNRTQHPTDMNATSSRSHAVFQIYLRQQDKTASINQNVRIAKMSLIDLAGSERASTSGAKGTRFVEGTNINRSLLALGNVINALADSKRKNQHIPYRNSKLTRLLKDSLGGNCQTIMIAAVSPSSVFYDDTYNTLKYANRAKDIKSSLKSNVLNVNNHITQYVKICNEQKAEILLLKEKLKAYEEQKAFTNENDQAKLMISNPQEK
# In short: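 Microtubule-stimulated ATPase of KIF18A(1-417) run with 60 μg/mL microtubules, 25 μM ATP and 2.5 nM enzyme, compounds at 0-10 μM final, 120 min at ambient temperature. ADP formed was read by ADP-Glo chemiluminescence after two 30-min reagent incubations.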
SMILES,"IC50 (HT29 cells; Homo sapiens, HT-29, 72 h)","IC50 (OVCAR3 cells; Homo sapiens, OVCAR-3, 72 h)",IC50 [1],IC50 (HT29 cells),IC50 (OVCAR3 cells)
"O=C(Nc1cc2ccc(O)nc2c(N2CCC(F)(F)CC2)c1F)c1ccc(NS(=O)(=O)CCO)cc1N1CCC2(CC1)CC2 [Example 76, N-(8-(4,4-difluoropiperidin-1-yl)-7-fluoro-2-hydroxyquinolin-6-yl)-4-((2-hydroxyethyl)sulfonamido)-2-(6-azaspiro[2.5]oct-6-yl)benzamide]",31 nM,34 nM,46 nM,,
"Nc1ccc2cc(NC(=O)c3ccc(NS(=O)(=O)CCO)cc3N3CCC4(CC3)CC4)c(F)c(N3CCC(F)(F)CC3)c2n1 [Example 78, N-(2-amino-8-(4,4-difluoropiperidin-1-yl)-7-fluoroquinolin-6-yl)-4-((2-hydroxyethyl)sulfonamido)-2-(6-azaspiro[2.5]octan-6-yl)benzamide]",11 nM,12 nM,193 nM,,
"CNc1ccc2cc(NC(=O)c3ccc(NS(=O)(=O)CCO)cc3N3CCC4(CC3)CC4)c(F)c(N3CCC(F)(F)CC3)c2n1 [Example 79, N-(8-(4,4-difluoropiperidin-1-yl)-7-fluoro-2-(methylamino)quinolin-6-yl)-4-((2-hydroxyethyl)sulfonamido)-2-(6-azaspiro[2.5]oct-6-yl)benzamide]",55 nM,47 nM,943 nM,,
"O=C(Nc1cc2cccnc2c(N2CCC(F)(F)CC2)c1F)c1cnc(NS(=O)(=O)CCO)cc1N1CCC2(CC1)CC2 [Example 80, N-(8-(4,4-difluoropiperidin-1-yl)-7-fluoroquinolin-6-yl)-6-((2-hydroxyethyl)sulfonamido)-4-(6-azaspiro[2.5]oct-6-yl)nicotinamide]",20 nM,18 nM,9 nM,,
"O=C(Nc1cc(N2CCC(F)(F)CC2)c2cnccc2c1)c1ccc(NS(=O)(=O)CCO)cc1N1CCC2(CC1)CC2 [Example 81, N-(8-(4,4-difluoropiperidin-1-yl)isoquinolin-6-yl)-4-(2-hydroxyethylsulfonamido)-2-(6-azaspiro[2.5]octan-6-yl)benzamide]",8 nM,18 nM,35 nM,,
"O=C(Nc1cc(N2CCC(F)(F)CC2)c2nnccc2c1)c1ccc(NS(=O)(=O)CCO)cc1N1CCC2(CC1)CC2 [Example 82, 2-{6-azaspiro[2.5]octan-6-yl}-N-[8-(4,4-difluoropiperidin-1-yl)misonin-6-yl]-4-(2-hydroxyethanesulfonamido)benzamide]",14 nM,13 nM,33 nM,,
"Nc1ncc2cc(NC(=O)c3ccc(NS(=O)(=O)CCO)cc3N3CCC4(CC3)CC4)cc(N3CCC(F)(F)CC3)c2n1 [Example 84, N-(2-amino-8-(4,4-difluoropiperidin-1-yl)quinazolin-6-yl)-4-((2-hydroxyethyl)sulfonamido)-2-(6-azaspiro[2.5]oct-6-yl)benzamide]",25 nM,11 nM,40 nM,,
"CCOC(=O)c1cnc2c(N3CCC(F)(F)CC3)cc(NC(=O)c3ccc(NS(=O)(=O)CCO)cc3N3CCC4(CC3)CC4)cc2c1 [Example 86, Ethyl 6-(2-{6-azaspiro[2.5]octan-6-yl}-4-(2-hydroxyethanesulfonamido)benzoylamino)-8-(4,4-difluoropiperidin-1-yl)quinoline-3-carboxylate]",56 nM,34 nM,223 nM,,
"O=C(O)c1cnc2c(N3CCC(F)(F)CC3)cc(NC(=O)c3ccc(NS(=O)(=O)CCO)cc3N3CCC4(CC3)CC4)cc2c1 [Example 87, 6-(2-{6-azaspiro[2.5]octan-6-yl}-4-(2-hydroxyethanesulfonamido)benzoylamino)-8-(4,4-difluoropiperidin-1-yl)quinoline-3-carboxylic acid]",> 3000 nM,> 3000 nM,10 nM,,
"NC(=O)c1cnc2c(N3CCC(F)(F)CC3)cc(NC(=O)c3ccc(NS(=O)(=O)CCO)cc3N3CCC4(CC3)CC4)cc2c1 [Example 88, 6-(2-{6-azaspiro[2.5]octan-6-yl}-4-(2-hydroxyethanesulfonamido)benzoylamino)-8-(4,4-difluoropiperidin-1-yl)quinoline-3-carboxamide]",425 nM,154 nM,41 nM,,
"Cc1cc2cc(NC(=O)c3ccc(NS(=O)(=O)CCO)cc3N3CCC4(CC3)CC4)cc(N3CCC(F)(F)CC3)c2nc1N [Example 89, N-[2-Amino-8-(4,4-difluoropiperidinyl)-3-methyl (6-quinolinyl)](2-(6-azaspiro[2.5]octan-6-yl)-4-{[(2-hydroxyethyl)sulfonyl]amino}phenyl)formamide]",,,179 nM,32 nM,32 nM
"Cc1cnc2c(N3CCC(F)(F)CC3)c(F)c(NC(=O)c3ccc(NS(=O)(=O)CCO)cc3N3CCC4(CC3)CC4)cc2c1 [Example 90, 2-{6-azaspiro[2.5]octan-6-yl}-N-[8-(4,4-difluoropiperidin-1-yl)-7-fluoro-3-methylquinolin-6-yl]-4-(2-hydroxyethanesulfonamido)benzamide]",106 nM,96 nM,341 nM,,

# Second part, led by results:
"IC50 (HT29 cells; Homo sapiens, HT-29, 72 h)","IC50 (OVCAR3 cells; Homo sapiens, OVCAR-3, 72 h)",IC50 [1],SMILES,IC50 (HT29 cells),IC50 (OVCAR3 cells)
16 nM,13 nM,173 nM,"Nc1cnc2c(N3CCC(F)(F)CC3)c(F)c(NC(=O)c3ccc(NS(=O)(=O)CCO)cc3N3CCC4(CC3)CC4)cc2c1 [Example 91, N-[3-amino-8-(4,4-difluoropiperidin-1-yl)-7-fluoroquinolin-6-yl]-2-{6-azaspiro[2.5]octan-6-yl}-4-(2-hydroxyethanesulfonamido)benzamide]",,
17 nM,11.3 nM,153 nM,"C[C@H](CO)S(=O)(=O)Nc1ccc(C(=O)Nc2cc3cccnc3c(N3CCC(F)(F)CC3)n2)c(N2CCC3(CC2)CC3)c1 [Example 96, 2-{6-Azaspiro[2.5]octan-6-yl}-N-[8-(4,4-difluoropiperidin-1-yl)-1,7-naphthyridin-6-yl]-4-[(2R)-1-hydroxypropane-2-sulfonamido]benzamide]",,
17 nM,13.9 nM,153 nM,"C[C@@H](CO)S(=O)(=O)Nc1ccc(C(=O)Nc2cc3cccnc3c(N3CCC(F)(F)CC3)n2)c(N2CCC3(CC2)CC3)c1 [Example 97, 2-{6-azaspiro[2.5]octan-6-yl}-N-[8-(4,4-difluoropiperidin-1-yl)-1,7-naphthyridin-6-yl]-4-[(2S)-1-hydroxypropane-2-sulfonamido]benzamide]",,
21 nM,17 nM,166 nM,"C[C@H](CO)S(=O)(=O)Nc1ccc(C(=O)Nc2cc3cccnc3c(N3CCC(F)(F)CC3)c2F)c(N2CCC3(CC2)CC3)c1 [Example 98, 2-{6-azaspiro[2.5]octan-6-yl}-N-[8-(4,4-difluoropiperidin-1-yl)-7-fluoroquinolin-6-yl]-4-[(2R)-1-hydroxypropane-2-sulfonamido]benzamide]",,
22 nM,17 nM,174 nM,"C[C@@H](CO)S(=O)(=O)Nc1ccc(C(=O)Nc2cc3cccnc3c(N3CCC(F)(F)CC3)c2F)c(N2CCC3(CC2)CC3)c1 [Example 99, 2-{6-azaspiro[2.5]octan-6-yl}-N-[8-(4,4-difluoropiperidin-1-yl)-7-fluoroquinolin-6-yl]-4-[(2S)-1-hydroxypropane-2-sulfonamido]benzamide]",,
12 nM,11 nM,24 nM,"O=C(Nc1ccc(NS(=O)(=O)CCO)cc1N1CCC2(CC1)CC2)c1cc(N2CCC(F)(F)CC2)c2ncccc2c1 [Example 100, N-(2-{6-azaspiro[2.5]octan-6-yl}-4-(2-hydroxyethanesulfonamido)phenyl)-8-(4,4-difluoropiperidin-1-yl)quinoline-6-carboxamide]",,
